Test: frontal affinity chromatography (FAC), association constant to PA sugar chains without L-fucose
Type: binding
Conditions: for association constant Ka: 25 degrees C.
Description: The following section will describe a method of calculating an association constant by frontal affinity chromatography (FAC). This method is based on the following principle. […] Then, the elution front end (front) is observed immediately. When there is an affinity with lectin, the elution of the sugar chain is delayed.
The preparation of a lectin column used in the apparatus is performed in the method as described below. 1. Purified lectin is dissolved in 0.1 to 0.2M of NaHCO3 buffer solution (pH 8.3 to 8.5). 2. The lectin is immobilized, via a lectin primary amino group, a carrier such as NHS activated sepharose. 3. Then, the lectin is blocked by Tris buffer solution including primary amine or ethanolamine for example. 4. Lectin-sepharose is suspended in 10 mM Tris buffer, including 0.8% of NaCl (pH 7.4, TBS). Then, lectin immobilized resin is filled in a miniature column (φ2 mm×10 mm, 31.4 μl). 5. The miniature column in which the lectin immobilized resin is filled is protected by a holder and the lectin column is connected to an FAC automatic analysis apparatus (FAC-1, SHIMADZU CORPORATION).
Then, the elution of the PA sugar chain from the column is detected by a fluorescence detector (excitation wavelength/fluorescence wavelength: 310 nm/380 nm).
Based on the detection data, by using the elution front end (Vo) of the sugar chain (PA rhamnose) not interacting with lectin as a reference, the delay (V−Vo) of the elution front end (V) of a sugar chain interacting with lectin is calculated as an interaction strength. Then, based on the following FAC criteria expressions, the association constant (Ka) between the sugar chain and lectin is calculated based on V−Vo and Bt. If the interaction strength (V−Vo value) and the association constant are higher, a higher affinity is caused between lectin and an L-fucose α1→6 sugar chain.
[In the formula, A means substance used for the elution, Ao means the initial concentration of the substance A, B means a immobilized ligand, V means the elution volume, Vo means the elution front end volume of the substance not interacting with the immobilized ligand B at all, Bt means an effective ligand amount, Kd means a dissociation constant (an inverse of the association constant)].
Pyridylaminated (PA) sugar chains shown in FIG. 1 and FIG. 2 were used to frontal affinity chromatography (FAC) analysis. PA sugars were purchased from TAKARA BIO INC., SEIKAGAKU BIOBUSINESS CORPORATION, and Masuda Chemical Industries co., LTD. PA sugar were also obtained by pyridylaminating, by GlycoTAG®(TAKARA BIO INC.), an unlabeled sugar chain or a sugar chain obtained by subjecting a sugar chain to enzyme digestion for example.
Lectin was dissolved in 0.2 M NaHCO3 buffer solution (pH 8.3) including 0.5 M NaCl and coupled to the NHS-activated sepharose (GE Healthcare Bioscience) by following the manufacturer's instructions. Then, lectin immobilized sepharose was suspended in 10 mM Tris buffer (pH 7.4, TBS) including […] and the resultant matter was filled in a miniature column (φ2 mm×10 mm, 31.4 μl).
Frontal affinity chromatography was performed using FAC automatic analysis apparatus (FAC-1, SHIMADZU CORPORATION). In particular, the above-prepared lectin column was inserted to a stainless steel holder and the holder was connected to FAC-1 apparatus. The flow rate and the column temperature were maintained at 0.125 ml/min and 25 degrees C., respectively. After the miniature column was equilibrated by the TBS, an excessive volume (0.5 ml to 4 ml) of a PA sugar chain (3.75 nM or 7.5 nM) was continuously inputted to the column using an automatic sampling apparatus.
The fluorescent strength of the eluate of the PA sugar (excitation wavelength of 310 nm and fluorescence wavelength of 380 nm) was monitored to measure the interaction strength [a difference of the front end eluate to the standard oligosaccharide (PA rhamnose): V−V0]. […]

Substance: Stropharia rugosoannulata lectin [SRL, novel L-fucose α1→6 specific lectin purified from the mushroom Stropharia rugosoannulata]
- binding to sugar chain not having L-fucose (FAC): not bound
- association constant Ka (Sugar chain No. 001): <1000 M⁻¹
- association constant Ka (Sugar chain No. 002): <1000 M⁻¹
- association constant Ka (Sugar chain No. 003): <1000 M⁻¹
- association constant Ka (Sugar chain No. 004): <1000 M⁻¹
- association constant Ka (Sugar chain No. 005): <1000 M⁻¹
- association constant Ka (Sugar chain No. 006): <1000 M⁻¹
- association constant Ka (Sugar chain No. 007): <1000 M⁻¹
- association constant Ka (Sugar chain No. 008): <1000 M⁻¹
- association constant Ka (Sugar chain No. 009): <1000 M⁻¹
- association constant Ka (Sugar chain No. 010): <1000 M⁻¹
- association constant Ka (Sugar chain No. 011): <1000 M⁻¹
- association constant Ka (Sugar chain No. 012): <1000 M⁻¹
- association constant Ka (Sugar chain No. 013): <1000 M⁻¹
- association constant Ka (Sugar chain No. 014): <1000 M⁻¹
- association constant Ka (Sugar chain No. 101): <1000 M⁻¹
- association constant Ka (Sugar chain No. 103): <1000 M⁻¹
- association constant Ka (Sugar chain No. 104): <1000 M⁻¹
- association constant Ka (Sugar chain No. 105): <1000 M⁻¹
- association constant Ka (Sugar chain No. 107): <1000 M⁻¹
- association constant Ka (Sugar chain No. 108): <1000 M⁻¹
- association constant Ka (Sugar chain No. 301): <1000 M⁻¹
- association constant Ka (Sugar chain No. 304): <1000 M⁻¹
- association constant Ka (Sugar chain No. 305): <1000 M⁻¹
- association constant Ka (Sugar chain No. 307): <1000 M⁻¹
- association constant Ka (Sugar chain No. 308): <1000 M⁻¹
- association constant Ka (Sugar chain No. 313): <1000 M⁻¹
- association constant Ka (Sugar chain No. 314): <1000 M⁻¹
- association constant Ka (Sugar chain No. 323): <1000 M⁻¹
- association constant Ka (Sugar chain No. 501): <1000 M⁻¹
- association constant Ka (Sugar chain No. 502): <1000 M⁻¹
- association constant Ka (Sugar chain No. 503): <1000 M⁻¹
- association constant Ka (Sugar chain No. 504): <1000 M⁻¹
- association constant Ka (Sugar chain No. 701): <1000 M⁻¹
- association constant Ka (Sugar chain No. 702): <1000 M⁻¹
- association constant Ka (Sugar chain No. 703): <1000 M⁻¹
- association constant Ka (Sugar chain No. 704): <1000 M⁻¹
- association constant Ka (Sugar chain No. 705): <1000 M⁻¹
- association constant Ka (Sugar chain No. 706): <1000 M⁻¹
- association constant Ka (Sugar chain No. 707): <1000 M⁻¹
- association constant Ka (Sugar chain No. 708): <1000 M⁻¹
- association constant Ka (Sugar chain No. 709): <1000 M⁻¹
- association constant Ka (Sugar chain No. 710): <1000 M⁻¹
- association constant Ka (Sugar chain No. 711): <1000 M⁻¹
- association constant Ka (Sugar chain No. 712): <1000 M⁻¹
- association constant Ka (Sugar chain No. 713): <1000 M⁻¹
- association constant Ka (Sugar chain No. 715): <1000 M⁻¹
- association constant Ka (Sugar chain No. 716): <1000 M⁻¹
- association constant Ka (Sugar chain No. 717): <1000 M⁻¹
- association constant Ka (Sugar chain No. 724): <1000 M⁻¹
- association constant Ka (Sugar chain No. 725): <1000 M⁻¹
- association constant Ka (Sugar chain No. 728 (as listed in Table 7)): <1000 M⁻¹
- association constant Ka (Sugar chain No. 732): <1000 M⁻¹
- association constant Ka (Sugar chain No. 733): <1000 M⁻¹
- association constant Ka (Sugar chain No. 734): <1000 M⁻¹
- association constant Ka (Sugar chain No. 735): <1000 M⁻¹
- association constant Ka (Sugar chain No. 736): <1000 M⁻¹
- association constant Ka (Sugar chain No. 737): <1000 M⁻¹
- association constant Ka (Sugar chain No. 738): <1000 M⁻¹
- association constant Ka (Sugar chain No. 901): <1000 M⁻¹
- association constant Ka (Sugar chain No. 902): <1000 M⁻¹
- association constant Ka (Sugar chain No. 903): <1000 M⁻¹
- association constant Ka (Sugar chain No. 905): <1000 M⁻¹
- association constant Ka (Sugar chain No. 906): <1000 M⁻¹
- association constant Ka (Sugar chain No. 907): <1000 M⁻¹
